Measurements taken from patent US20100029681A1, “HETEROCYCLIC COMPOUNDS AS CALCIUM CHANNEL BLOCKERS” (priority 2006, published 2010).
Where two headings read alike, the source gives them in different places.

Biological target: T1, rat brain N-type calcium channel subunits (α1B+α2δ+β1b cDNA subunits) (Rattus norvegicus, UniProt Q02294)
T1 construct: expressed in transfected cells; host or cells: HEK 293
Assay: N-type calcium channel block, whole cell patch clamp in transfected HEK 293 cells
Type: cell-based
Procedure: N-type calcium channel blocking activity was assayed in human embryonic kidney cells, HEK 293, stably transfected with the rat brain N-type calcium channel subunits (α1B+α2δ+β1b cDNA subunits). Alternatively, N-type calcium channels (α1B+α2δ+β1b cDNA subunits), L-type channels (α1C+α2δ+β1b cDNA subunits) and P/Q-type channels (α1A+α2δ+β1b cDNA subunits) were transiently expressed in HEK 293 cells. Briefly, cells were cultured in Dulbecco's modified eagle medium (DMEM) supplemented with 10% fetal bovine serum, 200 U/ml penicillin and 0.2 mg/ml streptomycin at 37° C. with 5% CO2. At 85% confluency cells were split with 0.25% trypsin/1 mM EDTA and plated at 10% confluency on glass coverslips. At 12 hours the medium was replaced and the cells transiently transfected using a standard calcium phosphate protocol and the appropriate calcium channel cDNA's. Fresh DMEM was supplied and the cells transferred to 28° C./5% CO2. Cells were incubated for 1 to 2 days prior to whole cell recording.
Whole cell patch clamp experiments were performed using an Axopatch 200B amplifier (Axon Instruments, Burlingame, Calif.) linked to a personal computer equipped with pCLAMP software. The external and internal recording solutions contained, respectively, 5 mM BaCl2, 10 mM MgCl2, 10 mM HEPES, 40 mM TEACl, 10 mM glucose, 87.5 mM CsCl (pH 7.2) and 108 mM CsMS, 4 mM MgCl2, 9 mM EGTA, 9 mM HEPES (pH 7.2). Currents were typically elicited from a holding potential of −80 mV to +10 mV using Clampex software (Axon Instruments). Typically, currents were first elicited with low frequency stimulation (0.067 Hz) and allowed to stabilize prior to application of the compounds. The compounds were then applied during the low frequency pulse trains for two to three minutes to assess tonic block, and subsequently the pulse frequency was increased to 0.2 Hz to assess frequency dependent block. Data were analyzed using Clampfit (Axon Instruments) and SigmaPlot 4.0 (Jandel Scientific).

[1] = −50 mV, read-out: IC50 @ −50 mV
[2] = −80 mV, read-out: IC50 @ −80 mV

T1 sequence (Q02294 whole entry): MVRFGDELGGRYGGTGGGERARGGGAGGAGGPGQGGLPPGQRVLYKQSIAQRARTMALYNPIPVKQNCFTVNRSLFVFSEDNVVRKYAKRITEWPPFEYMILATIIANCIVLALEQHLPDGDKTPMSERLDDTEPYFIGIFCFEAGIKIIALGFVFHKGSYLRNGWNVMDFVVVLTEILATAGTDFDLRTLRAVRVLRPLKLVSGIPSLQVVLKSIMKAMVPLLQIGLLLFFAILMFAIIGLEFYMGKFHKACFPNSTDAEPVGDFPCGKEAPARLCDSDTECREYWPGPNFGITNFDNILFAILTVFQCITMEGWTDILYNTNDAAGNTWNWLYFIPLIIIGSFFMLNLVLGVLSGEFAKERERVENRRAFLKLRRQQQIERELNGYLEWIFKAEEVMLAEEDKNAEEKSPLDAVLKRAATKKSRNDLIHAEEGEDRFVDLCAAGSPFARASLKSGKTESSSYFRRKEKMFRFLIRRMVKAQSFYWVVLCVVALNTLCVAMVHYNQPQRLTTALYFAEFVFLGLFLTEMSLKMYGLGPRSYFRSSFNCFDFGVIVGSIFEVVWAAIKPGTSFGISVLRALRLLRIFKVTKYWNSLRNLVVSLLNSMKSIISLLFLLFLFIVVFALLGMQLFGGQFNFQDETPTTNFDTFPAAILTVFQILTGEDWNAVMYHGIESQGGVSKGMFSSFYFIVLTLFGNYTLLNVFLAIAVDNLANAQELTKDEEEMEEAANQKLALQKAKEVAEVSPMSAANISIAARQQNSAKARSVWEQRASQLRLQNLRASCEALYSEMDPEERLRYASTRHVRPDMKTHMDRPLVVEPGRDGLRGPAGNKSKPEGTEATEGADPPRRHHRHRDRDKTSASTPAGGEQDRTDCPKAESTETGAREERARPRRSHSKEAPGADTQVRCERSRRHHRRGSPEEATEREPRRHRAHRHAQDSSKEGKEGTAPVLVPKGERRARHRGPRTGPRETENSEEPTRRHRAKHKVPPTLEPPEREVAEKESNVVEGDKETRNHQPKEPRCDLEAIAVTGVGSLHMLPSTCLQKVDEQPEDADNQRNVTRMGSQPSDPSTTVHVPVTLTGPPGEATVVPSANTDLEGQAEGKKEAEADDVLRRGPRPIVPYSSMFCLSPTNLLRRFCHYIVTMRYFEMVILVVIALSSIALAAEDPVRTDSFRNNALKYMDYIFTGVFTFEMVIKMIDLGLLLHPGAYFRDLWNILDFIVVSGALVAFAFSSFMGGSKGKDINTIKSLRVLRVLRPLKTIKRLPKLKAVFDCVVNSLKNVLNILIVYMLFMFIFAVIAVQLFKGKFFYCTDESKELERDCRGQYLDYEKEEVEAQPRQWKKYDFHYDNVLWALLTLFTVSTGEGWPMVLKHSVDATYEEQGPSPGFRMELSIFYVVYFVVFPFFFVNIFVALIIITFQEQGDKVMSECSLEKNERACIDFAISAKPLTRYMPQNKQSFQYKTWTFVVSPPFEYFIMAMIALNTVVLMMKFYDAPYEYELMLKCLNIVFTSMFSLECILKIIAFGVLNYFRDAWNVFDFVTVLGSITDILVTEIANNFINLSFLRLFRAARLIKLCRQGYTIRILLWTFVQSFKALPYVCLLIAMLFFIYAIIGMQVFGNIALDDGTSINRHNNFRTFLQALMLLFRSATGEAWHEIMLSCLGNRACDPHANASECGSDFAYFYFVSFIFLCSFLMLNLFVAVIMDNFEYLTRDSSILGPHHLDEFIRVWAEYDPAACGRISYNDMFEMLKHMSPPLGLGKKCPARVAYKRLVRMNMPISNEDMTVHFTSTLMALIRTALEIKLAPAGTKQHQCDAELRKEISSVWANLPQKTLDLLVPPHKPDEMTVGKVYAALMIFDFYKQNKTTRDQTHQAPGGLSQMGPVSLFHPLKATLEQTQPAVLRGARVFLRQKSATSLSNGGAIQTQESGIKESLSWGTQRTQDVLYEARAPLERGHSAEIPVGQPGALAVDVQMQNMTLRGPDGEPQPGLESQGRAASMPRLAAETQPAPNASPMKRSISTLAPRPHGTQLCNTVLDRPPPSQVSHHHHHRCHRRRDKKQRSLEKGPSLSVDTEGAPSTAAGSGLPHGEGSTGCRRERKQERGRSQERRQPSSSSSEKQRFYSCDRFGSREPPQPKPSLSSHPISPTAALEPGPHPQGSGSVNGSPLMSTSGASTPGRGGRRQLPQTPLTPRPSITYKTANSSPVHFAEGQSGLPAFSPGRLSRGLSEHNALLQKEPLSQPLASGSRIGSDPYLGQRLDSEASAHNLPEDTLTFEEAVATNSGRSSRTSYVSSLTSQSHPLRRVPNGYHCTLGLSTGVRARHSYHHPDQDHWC
T1 sequence (P54290 25-944 partner limits assumed): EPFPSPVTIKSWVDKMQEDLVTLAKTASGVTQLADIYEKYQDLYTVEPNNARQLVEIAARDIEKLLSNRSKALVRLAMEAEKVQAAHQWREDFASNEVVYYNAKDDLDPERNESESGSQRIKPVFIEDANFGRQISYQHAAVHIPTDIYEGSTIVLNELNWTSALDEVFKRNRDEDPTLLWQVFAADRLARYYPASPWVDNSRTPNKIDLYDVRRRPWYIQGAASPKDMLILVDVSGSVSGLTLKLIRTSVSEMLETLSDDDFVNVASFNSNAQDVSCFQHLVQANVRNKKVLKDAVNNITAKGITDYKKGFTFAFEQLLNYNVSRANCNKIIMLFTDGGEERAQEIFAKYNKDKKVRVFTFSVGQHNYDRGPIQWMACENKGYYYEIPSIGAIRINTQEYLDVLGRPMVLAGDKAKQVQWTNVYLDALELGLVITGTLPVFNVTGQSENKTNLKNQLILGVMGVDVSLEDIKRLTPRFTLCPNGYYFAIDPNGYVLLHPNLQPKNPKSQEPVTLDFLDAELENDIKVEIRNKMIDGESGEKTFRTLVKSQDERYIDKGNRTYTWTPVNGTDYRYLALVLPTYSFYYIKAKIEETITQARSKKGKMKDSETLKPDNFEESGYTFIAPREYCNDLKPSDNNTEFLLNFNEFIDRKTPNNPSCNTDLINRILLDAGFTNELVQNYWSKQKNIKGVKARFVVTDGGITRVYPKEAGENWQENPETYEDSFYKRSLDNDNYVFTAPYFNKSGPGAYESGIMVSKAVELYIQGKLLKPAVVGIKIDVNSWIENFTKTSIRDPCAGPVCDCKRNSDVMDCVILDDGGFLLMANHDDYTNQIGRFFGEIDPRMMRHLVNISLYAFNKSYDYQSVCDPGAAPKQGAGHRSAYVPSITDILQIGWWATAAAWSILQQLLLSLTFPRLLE
T1 sequence (P54290 945-1091 partner limits assumed): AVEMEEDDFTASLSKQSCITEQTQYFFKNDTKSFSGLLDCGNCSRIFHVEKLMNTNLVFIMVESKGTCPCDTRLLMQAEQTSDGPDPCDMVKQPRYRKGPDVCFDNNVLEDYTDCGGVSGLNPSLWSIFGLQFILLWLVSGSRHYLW
T1 sequence (P54283 whole entry partner): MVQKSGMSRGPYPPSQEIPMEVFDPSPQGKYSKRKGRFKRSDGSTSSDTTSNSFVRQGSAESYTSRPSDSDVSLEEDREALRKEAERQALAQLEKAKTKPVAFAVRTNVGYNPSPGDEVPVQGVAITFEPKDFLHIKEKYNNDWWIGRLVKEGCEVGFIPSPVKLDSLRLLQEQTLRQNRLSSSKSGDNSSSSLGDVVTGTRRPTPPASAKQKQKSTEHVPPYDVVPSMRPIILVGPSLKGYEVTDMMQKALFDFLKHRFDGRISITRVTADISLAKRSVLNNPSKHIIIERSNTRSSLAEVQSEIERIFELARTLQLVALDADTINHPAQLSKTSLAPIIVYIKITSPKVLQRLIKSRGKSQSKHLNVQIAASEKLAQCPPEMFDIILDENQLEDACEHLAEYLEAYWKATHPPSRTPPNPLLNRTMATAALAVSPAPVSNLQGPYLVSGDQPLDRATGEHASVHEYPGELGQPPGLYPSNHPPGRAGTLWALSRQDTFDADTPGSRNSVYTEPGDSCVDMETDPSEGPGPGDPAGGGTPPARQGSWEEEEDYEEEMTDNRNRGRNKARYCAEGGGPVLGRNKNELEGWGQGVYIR

Structure (SMILES) | IC50 [1] [nM] | IC50 [2] [nM]
O=C(CN1CCN(C(c2ccccc2)c2ccccc2)CC1)Nc1nc2ccc(F)cc2s1 [Compound 1, 2-(4-benzhydrylpiperazin-1-yl)-N-(6-fluorobenzo[d]thiazol-2-yl)acetamide] | 400 | 770
O=C(CN1CCN(C(c2ccc(F)cc2)c2ccc(F)cc2)CC1)Nc1nc2ccc(F)cc2s1 [Compound 2, 2-(4-(bis(4-fluorophenyl)methyl)piperazin-1-yl)-N-(6-fluorobenzo[d]thiazol-2-yl)acetamide] | 490 | 920
O=C(CN1CCN(C(c2ccc(F)cc2)c2ccc(F)cc2)CC1)Nc1nccs1 [Compound 4, 2-(4-(bis(4-fluorophenyl)methyl)piperazin-1-yl)-N-(thiazol-2-yl)acetamide] | 1200 | 3400
Cc1cnc(NC(=O)CN2CCN(C(c3ccccc3)c3ccccc3)CC2)s1 [Compound 5, 2-(4-benzhydrylpiperazin-1-yl)-N-(5-methylthiazol-2-yl)acetamide] | 780 | 1950
O=C(CN1CCN(C(c2ccc(F)cc2)c2ccc(F)cc2)CC1)Nc1ncc(Cl)s1 [Compound 8, 2-(4-(bis(4-fluorophenyl)methyl)piperazin-1-yl)-N-(5-chlorothiazol-2-yl)acetamide] | 530 | 1040
Cc1ccc(-c2csc(NC(=O)CN3CCN(C(c4ccccc4)c4ccccc4)CC3)n2)cc1 [Compound 9, 2-(4-benzhydrylpiperazin-1-yl)-N-(4-p-tolylthiazol-2-yl)acetamide] | 2500 | 6400
Cc1ccc(-c2csc(NC(=O)CN3CCN(C(c4ccc(F)cc4)c4ccc(F)cc4)CC3)n2)cc1 [Compound 10, 2-(4-(bis(4-fluorophenyl)methyl)piperazin-1-yl)-N-(4-p-tolylthiazol-2-yl)acetamide] | 1910 | 3540
O=C(CN1CCN(C(c2ccccc2)c2ccccc2)CC1)Nc1nc2ccc(Cl)cc2s1 [Compound 11, 2-(4-benzhydrylpiperazin-1-yl)-N-(6-chlorobenzo[d]thiazol-2-yl)acetamide] | 1600 | 3400
O=C(CN1CCN(C(c2ccc(F)cc2)c2ccc(F)cc2)CC1)Nc1nc2ccc(Cl)cc2s1 [Compound 12, 2-(4-(bis(4-fluorophenyl)methyl)piperazin-1-yl)-N-(6-chlorobenzo[d]thiazol-2-yl)acetamide] | 2560 | 4580
O=C(CN1CCN(C(c2ccccc2)c2ccccc2)CC1)Nc1nc2ccccc2[nH]1 [Compound 14, 2-(4-benzhydrylpiperazin-1-yl)-N-(1H-benzo[d]imidazol-2-yl)acetamide] | 250 | 290
O=C(CN1CCN(C(c2ccccc2)c2ccccc2)CC1)Nc1nc2ccccc2s1 [Compound 16, 2-(4-benzhydrylpiperazin-1-yl)-N-(benzo[d]thiazol-2-yl)acetamide] | 600 | 1210
O=C(CN1CCN(C(c2ccc(F)cc2)c2ccc(F)cc2)CC1)Nc1nc2ccccc2s1 [Compound 17, N-(benzo[d]thiazol-2-yl)-2-(4-(bis(4-fluorophenyl)methyl)piperazin-1-yl)acetamide] | 530 | 2530
O=C(CN1CCN(C(c2ccccc2)c2ccccc2)CC1)Nc1nc2ccc(OC(F)(F)F)cc2s1 [Compound 18, 2-(4-benzhydrylpiperazin-1-yl)-N-(6-trifluoromethoxybenzo[d]thiazol-2-yl)acetamide] | 1160 | 2900
COc1ccc2nc(NC(=O)CN3CCN(C(c4ccccc4)c4ccccc4)CC3)sc2c1 [Compound 19, 2-(4-benzhydrylpiperazin-1-yl)-N-(6-methoxybenzo[d]thiazol-2-yl)acetamide] | 1540 | 3160
CS(=O)(=O)c1ccc2nc(NC(=O)CN3CCN(C(c4ccccc4)c4ccccc4)CC3)sc2c1 [Compound 20, 2-(4-benzhydrylpiperazin-1-yl)-N-(6-mesylbenzo[d]thiazol-2-yl)acetamide] | 1640 | 3130
